Literature values as cited in patent US9617270B2, “Cytotoxic benzodiazepine derivatives” (priority 2012, dated 2017).

Details: Phase I clinical evaluation

SMILES: C=C1C[C@H]2C=Nc3cc(OCCCOc4cc5c(cc4OC)C(=O)N4CC(=C)C[C@H]4C=N5)c(OC)cc3C(=O)N2C1 [SJG-136]
- adverse effects noted: vascular leak syndrome, peripheral edema, liver toxicity and fatigue
- maximum tolerated dose: 45 μg/m^2
- DNA damage in circulating lymphocytes (circulating lymphocytes): noted at all doses
